What was measured:
SH-SY5Y cells [1] = assay: Neuroprotective effects against CuSO4 in SH-SY5Y cells (MTT); format: cell-based, human; conditions: 24 h, CuSO4 150 μM
Protocol: SH-SY5Y cells were seeded in a 96-well plate at 2 × 10^4 cells/well, incubated for 24 h and then […]
presence of CuSO4 (150 µM) at 37 °C in 5 % CO2. Cells were also treated with compound 1 (1 µM) for 24 h in the presence of lactacystin (5 µM). At the end of the treatment, the cell viability, in terms of mitochondrial metabolic function, was evaluated by the reduction of 3-(4,5-dimethyl-2-thiazolyl)- 2,5-diphenyl-2H-tetrazolium bromide (MTT) to its insoluble formazan. Briefly, the treatment was replaced with MTT in HBSS [0.5 mg/mL] for 2 h at 37°C in 5% CO2. After washing with HBSS, formazan crystals were dissolved in isopropanol. The amount of formazan was measured (570 nm, reference filter 690 nm) using a multilabel plate reader (VICTOR™ X3, PerkinElmer, Waltham, MA, USA).[10] Data are reported as mean ± SEM of three independent experiments. The neurotoxicity was expressed as a percentage of control cells and calculated by the formula: 100 – ((absorbance of treated

SH-SY5Y cells [2] = assay: Neuroprotective effects against Aβ25-35 peptide in SH-SY5Y cells (MTT); format: cell-based, human; conditions: 0.5 and 1 μM for 2 h, then 3 h with Aβ25–35 10 μM
Protocol: Data are reported as mean ± SEM of three independent experiments. […]
measured (570 nm, reference filter 690 nm) using a multilabel plate reader (VICTOR™ X3, PerkinElmer, Waltham, MA, USA).[11] Data are reported as mean ± SEM of three independent experiments. The neurotoxicity was expressed as a percentage of control cells and calculated by the formula: 100 – ((absorbance of treated neurons/absorbance of untreated neurons) × 100). […]
analysis was performed using one-way ANOVA with the Dunnett post hoc test. Differences were considered significant at p < 0.05. Analyses were performed using GraphPad PRISM software (version 5.0; GraphPad Software, La Jolla, CA, USA) on a Windows platform.
(§1) 11. PAMPA BBB permeation studies.
(§2) Prediction of the brain penetration was evaluated using a parallel artificial membrane permeability assay (PAMPA).[12] Ten commercial drugs, PBS at pH 7.4, EtOH, and dodecane were purchased from Sigma- Aldrich, Acros organics, Merck, and Fluka. The porcine polar brain lipid (PBL) was from Avanti Polar Lipids. The donor plate was a 96-well filtrate plate (Multiscreen® IP Sterile Plate PDVF […]
(§3) both from Millipore. Filter PDVF membrane units (diameter 30 mm, pore size 0.45 µm) from Symta were used to filter the samples. A 96-well plate UV reader (Biteck Instruments, Synergy H4 Hibrid Reader) was used for the UV measurements.
12 mg of promazine) were dissolved in 1 mL of EtOH. […]

PAMPA-BBB permeation = format: in vitro ADME
Protocol: as §1, §2, §3
12 mg of promazine) were dissolved in 1 mL of EtOH. 100 µL of this compound stock solution were taken and 1400 µL of EtOH and 3500 µL of PBS were added to reach 30% of EtOH concentration in the experiment. These solutions were filtered. The acceptor 96-well microplate was filled with 180 µL of PBS/EtOH (70/30). The donor 96-well plate was coated with 4 µL of porcine brain lipid in dodecane (20 mg mL-1) and after 5 min, 180 µL of each compound solution was added. 1 mg of […]
of EtOH and 1.4 mL of PBS, filtered and then added to the donor 96-well plate. Then the donor plate was carefully put on the acceptor plate to form a “sandwich”, which was left undisturbed for 2 h and 45 min at 25 °C. During this time the compounds diffused from the donor plate through the brain lipid membrane into the acceptor plate. After incubation, the donor plate was removed. UV plate reader determined the concentration of compounds and commercial drugs in the acceptor and the donor plates. Every sample was analyzed at three to five wavelengths (between 200 and 500 nm), in 3 wells and in two independent runs. Results are given as the mean and the average of the two runs is reported. Quality control compounds (previously mentioned) of known BBB permeability were included in each experiment to validate the analysis set.

GSK-3β protein = GSK-3β protein (Homo sapiens, UniProt P49841); assay: GSK-3β inhibition in vitro assay (Kinase-Glo luminescent); format: biochemical; parameters: purchased Millipore (Millipore Iberica S.A.U.); conditions: ATP 1 μM, GSM substrate 25 μM, 30 min at 37 °C; mean of at least two determinations in duplicate; read-out: IC50 ± SEM, GSK-3β activity
From the text: N-(2-(2-(2-((2-(2,6-dioxopiperidin-3-yl)-1,3-dioxoisoindolin-4-yl)amino)ethoxy)ethoxy)ethyl)- 4-((2-(naphthalen-1-yl)-3,5-dioxo-1,2,4-thiadiazolidin-4-yl)methyl)benzamide (4). Synthesized […]
GSK-3β inhibition in vitro assay. Human recombinant GSK-3β, prephosphorylated polypeptide substrate and white 96-well plates were purchased from Millipore (Millipore Iberica S.A.U.). Kinase-Glo Luminescent Kinase Assay was obtained from Promega (Promega Biotech Iberica, SL).
Adenosinetriphosphate (ATP) and all other reagents were from Sigma-Aldrich. Assay buffer contained 50 mM 4-(2-hydroxyethyl)-1- piperazineethanesulfonic acid (HEPES) (pH 7.5), 1 mM ethylenediaminetetraacetic acid (EDTA), 1 mM ethylene glycol tetraacetic acid (EGTA), and 15 mM magnesium acetate. The in solution experiments for GSK-3β inhibition analysis were performed by following the method developed by Baki et al.[1] In a typical assay, 10 μL of test compound (dissolved […]
in DMSO at 1 mM concentration and diluted in advance in assay buffer to the desired concentration) and 10 μL (20 ng) of enzyme were added to each well in presence of 20 μL of assay buffer containing […]
After a 30 min incubation time at 37 °C, the enzymatic reaction was stopped by adding 40 μL of Kinase-Glo reagent. Glow-type luminescence was recorded after 10 min using a Victorx3 (PerkinElmer Waltham, MA, USA) plate […]
inhibitory activities were calculated based on maximal kinase (average positive) and luciferase activities (average negative) measured in the absence of inhibitor and in the presence of reference […]
μM), respectively. The linear regression parameters were determined and the IC 50 extrapolated by GraphPad software (version 5.0; GraphPad Software, La Jolla, CA, USA).

[3] = classified from experimental Pe

Sequence of GSK-3β protein (P49841 whole entry): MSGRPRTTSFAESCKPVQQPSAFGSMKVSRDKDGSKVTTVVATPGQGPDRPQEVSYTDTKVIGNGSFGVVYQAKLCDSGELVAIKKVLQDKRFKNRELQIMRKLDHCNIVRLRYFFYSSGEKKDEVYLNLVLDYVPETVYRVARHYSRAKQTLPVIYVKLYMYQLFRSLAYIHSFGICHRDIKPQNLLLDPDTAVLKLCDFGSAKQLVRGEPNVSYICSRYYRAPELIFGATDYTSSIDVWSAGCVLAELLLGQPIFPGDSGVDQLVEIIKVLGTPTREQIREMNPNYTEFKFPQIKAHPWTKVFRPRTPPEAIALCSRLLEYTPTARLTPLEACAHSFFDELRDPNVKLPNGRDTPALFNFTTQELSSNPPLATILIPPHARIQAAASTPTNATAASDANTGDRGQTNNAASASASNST

Papp at 2.75 h (PAMPA-BBB permeation; PAMPA, pH 7.4, PBS:EtOH (70:30), 2 h 45 min at 25 °C, porcine brain lipid, mean ± SD of two independent experiments, read-out: Pe (experimental data)): 15.3 ± 1.12 ×10⁻⁶ cm/s | BBB permeability classification (PAMPA-BBB permeation; [3]): CNS± | IC50 (GSK-3β protein): 833 ± 62 nM
SMILES: O=C(Cn1cc(C2=C(c3ccc(Cl)cc3Cl)C(=O)NC2=O)c2ccccc21)NCCCOCCCCOCCCNc1cccc2c1C(=O)N(C1CCC(=O)NC1=O)C2=O (stereo not shown) [Compound 1]
neurotoxicity induced by CuSO4 (SH-SY5Y cells [1]; 1 μM, MTT): significantly counteracted the neurotoxicity induced by CuSO4 | neuroprotective effect against CuSO4 in the presence of lactacystin (SH-SY5Y cells [1]; lactacystin 5 μM): abolished by lactacystin | neurotoxicity induced by Aβ25–35 peptide (SH-SY5Y cells [2]): markedly reduced the neurotoxicity induced by Aβ25–35 peptide | Prediction (penetration in the CNS) (PAMPA-BBB permeation; [3]): CNS +/- (CNS +/- (orange) for 15.78 × 10 −6 cm s−1 > Pe > 11.11 × 10 –6 cm s−1)

Reference: publication PMC10251479, “PROTAC-Induced Glycogen Synthase Kinase 3β Degradation as a Potential Therapeutic Strategy for Alzheimer’s Disease” (ACS Chemical Neuroscience, 2023)
